Experimental data published in patent US6060043A, “Deodorant composition containing D-amino acid” (The Gillette Company, priority 1998, dated 2000).
In brackets after ≈: the same amount, converted by molar mass.

What was measured:
Coryneform bacteria = experiment: Minimum inhibitory concentration (MIC) in axillary bacteria, Coryneform strain; format: cell-based, Coryneform strains of axillary bacteria
Experimental: (§1) In vitro experiments were conducted in order to determine the ability of several bacterial cell wall synthesis inhibitors to inhibit the growth of axillary bacteria. The minimum inhibitory concentrations (MIC) of β-chloro-D-alanine (BCA), and D-cycloserine were determined in Staphylococcus (Staphylococcus haemolyticus) and Coryneform strains of axillary bacteria as follows: Frozen stock cultures were thawed out and 50 μl of Staphylococcus haemolyticus or 100 μl of Coryneform bacteria were inoculated into 5.0 ml of nutrient media. Bacteria were incubated at 35° C. overnight to produce cultures in log phase growth. A series of tubes was set up into which serial dilutions of BCA or triclosan in nutrient media were added in the range of 0.1 to 0.0001 wt/v % (where 1 g/100 ml=1 wt/v %). The tubes were inoculated with 50 μl of log phase Staphylococcus haemolyticus or Coryneform cultures and incubated at 35° C. overnight. […] The minimum bactericidal concentration (MBC) was determined by adding 50 μl from each clear solution of the MIC experiment into 5.0 ml of fresh nutrient media and incubating overnight at 37° C. […] The MIC of BCA was thus determined to be 0.1 wt/v % and 0.001 wt/v % in Staphylococcus haemolyticus and Coryneforms, respectively. The MIC of D-cycloserine was thus determined to be 0.01 wt/v % and 0.005 wt/v % in Staphylococcus haemolyticus and Coryneforms, respectively. By comparison, the MIC of the common antibacterial deodorant compound triclosan is 0.01 wt/v % and 0.1 wt/v % in Staphylococcus haemolyticus and Coryneforms, respectively.

axillary malodor [1] = experiment: Example 6: axillary malodor evaluation by odor judges, 1.0% β-chloro-D-alanine vs 1.0% β-chloro-L-alanine; format: in vivo, human; design: key to 24 Hour Drop from Control / A-B (drop), D-BCA minus L-BCA: drop in odor score on 0 (no odor) to 10 (very intense) scale; conditions: for 24 Hour Drop from Control: 1.0% in 60% propylene glycol/40% water
Experimental: (§2) BCA was dissolved in a mixture of 60% propylene glycol and 40% water at a final concentration of 1.0%. The pH of the solution was adjusted to about 6.25 with 10 N NaOH. Thirty-nine female panelists applied 0.5 ml of this test solution to either the right or left axilla and 0.5 ml of a comparative solution of 60% propylene glycol and 40% water to the other. The side of application of the test or comparative solutions was assigned in a random fashion. Twenty-four hours after application, each side of the panelists' axilla was judged for odor by a panel of trained odor judges on a scale of 0 (no odor) to 10 (very intense, disagreeable odor). This procedure was performed on four consecutive days. […] Analysis of the clinical results is summarized below:
A test product containing 1.0% β-chloro-D-alanine (BCA)[…] in 60% propylene glycol/40% water was compared to a comparative product containing 1.0% β-chloro-L-alanine in 60% propylene glycol/40% water by application to 50 female test subjects according to the procedure of Example 4.

axillary malodor [2] = experiment: Example 4: axillary malodor evaluation by trained odor judges, 1.0% BCA vs vehicle; format: in vivo, human; conditions: for 24 hours drop from untreated Control / Malodor Evaluation (score): 1.0% BCA; for Malodor Evaluation (score): 24 h after application, scale 0 to 10
Experimental: as §2
Significance was measured in a two-tailed T-test al 95% confidence level and n=number of subjects.

[3] = test system: Staphylococcus haemolyticus; experiment: Minimum inhibitory concentration (MIC) in axillary bacteria, Staphylococcus strain; format: cell-based
Experimental: as §1

β-lyase = experiment: Sniff vial test: malodor formation from precursors by whole Staphylococcus haemolyticus cells (beta-lyase inhibition); format: cell-based; conditions: 31-0.625 mM, phosphate buffer pH 6.8, 30 minutes at 35° C.; judged by smelling
Experimental: BCA was tested for its ability to prevent Staphylococcus haemolyticus from metabolizing sweat to form malodor. Log-phase cultures of Staphylococcus haemolyticus were incubated with various concentrations of BCA (31-0.625 mM) in phosphate buffer (pH 6.8) for 30 minutes at 35° C. The cell/BCA mixture was then added to a "sniff vial" containing malodor precursors and incubated at 35° C. for an additional 30 minutes. Malodor compounds were then extracted from the mixture with chloroform and malodor was judged by spotting 10 μl of chloroform extracts onto bibulous paper and smelling. […] In contrast, the β-lyase inhibitor aminooxyacetic acid (AOA) consistently prevents malodor in the above assay at concentrations of 5.0 mM.

[4] = In vivo test for axillary irritation of 1.0% BCA; design: species or system human; conditions: 1.0% in 60% propylene glycol/40% water, pH about 6.25, 1.0 ml, four consecutive days, seven panelists
Experimental: In vivo experiments were conducted to determine if 1.0% solutions of BCA were irritating to axillary skin. BCA was dissolved in a mixture of 60% propylene glycol and 40% water at a final concentration of 1.0%. The pH of the solution was adjusted to about 6.25 with 10 N NaOH. Seven panelists applied 1.0 ml of this test solution to a cotton applicator swab and applied the solution to either the right or left axilla. 1.0 ml of a control solution of 60% propylene glycol and 40% water was similarly applied to the other axilla. The side of application of the test or control solutions was assigned in a random fashion. This procedure was performed on four consecutive days. Axilla were monitored by a nurse for signs of skin irritation.

N[C@H](CCl)C(=O)O [BCA, β-chloro-D-alanine]
MIC (Coryneform bacteria): 10 µg/mL (≈ 0.0809 mM) | A-B (drop), D-BCA minus L-BCA (axillary malodor [1]; composite): 0.436 | 24 Hour Drop from Control (axillary malodor [1]; composite): 1.519 | Control of malodor, BCA test product versus 1.0% β-chloro-L-alanine comparative product (axillary malodor [1]; measurements 2-4 and composite, 95% level of confidence, not the first measurement): significantly more effective | A-B (drop), D-BCA minus L-BCA (axillary malodor [1]; post-application measurement 1): 0.166 | 24 Hour Drop from Control (axillary malodor [1]; post-application measurement 1): 1.079 | A-B (drop), D-BCA minus L-BCA (axillary malodor [1]; post-application measurement 2): 0.452 | 24 Hour Drop from Control (axillary malodor [1]; post-application measurement 2): 1.492 | A-B (drop), D-BCA minus L-BCA (axillary malodor [1]; post-application measurement 3): 0.665 | 24 Hour Drop from Control (axillary malodor [1]; post-application measurement 3): 1.678 | A-B (drop), D-BCA minus L-BCA (axillary malodor [1]; post-application measurement 4): 0.529 | 24 Hour Drop from Control (axillary malodor [1]; post-application measurement 4): 1.862 | Axillary skin irritation (axillary malodor [2]; 1.0% in 60% propylene glycol/40% water, 0.5 ml, four consecutive days, thirty-nine female panelists): No incidences of irritation were reported | Deodorant efficacy versus 60% propylene glycol/40% water comparative product (axillary malodor [2]; 95% confidence level, measurements 3, 4 and composite): significantly more effective | A-B (drop of comparative product minus drop of BCA product) (axillary malodor [2]; composite): -0.29 | 24 hours drop from untreated Control (axillary malodor [2]; composite): 0.96 | Malodor Evaluation (score) (axillary malodor [2]; measurement 1): 4.18 | Malodor Evaluation (score) (axillary malodor [2]; measurement 2): 3.6 | Malodor Evaluation (score) (axillary malodor [2]; measurement 3): 3.3 | Malodor Evaluation (score) (axillary malodor [2]; measurement 4): 3.49 | A-B (drop of comparative product minus drop of BCA product) (axillary malodor [2]; post-application measurement 1): 0.11 | 24 hours drop from untreated Control (axillary malodor [2]; post-application measurement 1): 0.41 | A-B (drop of comparative product minus drop of BCA product) (axillary malodor [2]; post-application measurement 2): -0.21 | 24 hours drop from untreated Control (axillary malodor [2]; post-application measurement 2): 0.99 | A-B (drop of comparative product minus drop of BCA product) (axillary malodor [2]; post-application measurement 3): -0.50 | 24 hours drop from untreated Control (axillary malodor [2]; post-application measurement 3): 1.29 | A-B (drop of comparative product minus drop of BCA product) (axillary malodor [2]; post-application measurement 4): -0.62 | 24 hours drop from untreated Control (axillary malodor [2]; post-application measurement 4): 1.10 | MIC [3]: 1000 µg/mL (≈ 8.09 mM) | Inhibition of malodor formed by staphylococcal metabolism of precursors (β-lyase): did not inhibit malodor | Axillary skin irritation [4]: No incidences of irritation were reported
